Results as given in publication PMC10107996, “Release of hepatitis B virions is positively regulated by glucose‐regulated protein 78 through direct interaction with preS1” (Journal of Medical Virology, 2022).
“Also recorded” adds a separate entry of the source. No end group written: not given here.

Key:
[1] = molecular target: T1, recombinant GRP78 (Homo sapiens, UniProt P11021); experiment: Isothermal titration calorimetry (ITC) with recombinant GRP78; type: binding
T1 construct: His; made in house; host or cells: Escherichia coli BL21
T1 sequence (P11021 19-654): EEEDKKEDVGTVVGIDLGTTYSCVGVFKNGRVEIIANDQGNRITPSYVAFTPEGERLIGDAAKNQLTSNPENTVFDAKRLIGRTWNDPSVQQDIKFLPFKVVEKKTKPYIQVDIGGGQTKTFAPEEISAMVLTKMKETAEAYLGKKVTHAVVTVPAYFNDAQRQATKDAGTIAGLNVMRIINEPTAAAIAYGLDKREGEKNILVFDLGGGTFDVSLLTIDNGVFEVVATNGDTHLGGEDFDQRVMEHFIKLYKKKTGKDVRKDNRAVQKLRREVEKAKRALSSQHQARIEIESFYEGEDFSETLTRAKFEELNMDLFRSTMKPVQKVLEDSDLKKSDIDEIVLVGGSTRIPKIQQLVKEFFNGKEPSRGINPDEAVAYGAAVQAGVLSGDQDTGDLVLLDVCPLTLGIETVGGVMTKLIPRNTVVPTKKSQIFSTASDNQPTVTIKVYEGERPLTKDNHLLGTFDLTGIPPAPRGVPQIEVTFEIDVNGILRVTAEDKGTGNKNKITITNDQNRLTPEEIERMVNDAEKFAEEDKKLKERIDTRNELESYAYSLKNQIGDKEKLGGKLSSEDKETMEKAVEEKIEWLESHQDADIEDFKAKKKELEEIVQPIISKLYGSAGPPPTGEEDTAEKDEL
Description: Additionally, we collected purified recombinant GRP78 protein (Supporting Information: Figure S2) and HBV‐enveloped particles from the cell supernatant, followed by separation by ultracentrifugation at 4°C for isothermal titration calorimetry (ITC) experiments. […] These findings confirmed the ability of HBV to promote GRP78 expression and identified that GRP78 directly interacts with preS1 and HBV‐enveloped particles.
Affinity constants under equilibrium (Ka) were obtained using a Nano ITC instrument. GRP78 protein solution (300 µL) was titrated with repeated injections of 40 µL solution until saturation at 25 °C. Nano Analyze software was used for the integration of heat signals and nonlinear regression analysis of the data.

[2] = tested on: HBV‐enveloped particle release from HepG2.2.15 cells; experiment: HBV-enveloped particle release and viral DNA content, particle gel assay and qPCR, HepG2.2.15 cells; type: cell-based, hepatitis B virus; conditions: for inhibition of GRP78-enhanced enveloped‐particle release and viral DNA content: GRP78‐overexpressing HepG2.2.15 cells
Description: (§1) HBV virions were identified by particle gel assay.[25] HBV‐producing cells were cultured, followed by harvesting of the culture medium. Cell supernatant was added to 35% PEG8000 and shaken at 4°C for >2 h. The viral particles were dissolved in TNE buffer, incubated overnight at 4°C, and subjected to agarose gel electrophoresis. The samples were transferred to a nitrocellulose membranes, treated with methanol for 30 min, blocked with 5% nonfat milk, and incubated with anti‐preS1 (for enveloped particles) or anti‐HBc (for capsid particles) antibodies for 1 h at 20°C. Following incubation with an antimouse secondary antibody (1:10,000) at 4°C overnight, the membrane was visualized using the an enhanced chemiluminescence western blot detection kit (Beyotime Biotech).

[3] = tested on: HBV‐enveloped particle release from HepAD38 cells; experiment: HBV-enveloped particle release, particle gel assay, HepAD38 cells; type: cell-based, hepatitis B virus
Description: as §1

[4] = molecular target: T2, purified recombinant GRP78 protein (human, UniProt P11021 19-654); experiment: MST; purified truncated GST-preS1 proteins with GRP78; conditions: both partners purified
T2 construct: source: recombinant, purified
T2 sequence (P11021 19-654): as above

[5] = molecular target: T2, purified recombinant GRP78 protein; experiment: ITC; recombinant GRP78 with preS1 peptides; conditions: both partners purified
[6] = synthesized peptide and recombinant GRP78, 25 °C

In the case of “SNIGALQFLPPP [GBP67, phage-display 12-mer peptide […]]”, the KD [1, 6] is reported as “negative”, the “N (sites)” value [1, 6] is reported as “negative” and the “△H” value [1, 6] is reported as “negative”.

In the case of “FHSHHNRPMKSP [GBP63, phage-display 12-mer peptide […]]”, the “N (sites)” value [1, 6] is reported as 0.248±3.22 sites and the “△H” value [1, 6] is reported as 8.83 ± 119 kcal/mol.

For VTTVGMPNKSFF [GBP68], the “N (sites)” value [1, 6] was 5.79±0.738 sites, the “△H” value [1, 6] was 3.49 ± 0.881 kcal/mol and the “effect on abundance of cytoplasmic viral particles and core particle release” value ([2]; HepG2.2.15 and HepAD38 cells, particle gel assay with anti‐HBcAg and anti‐preS1 antibodies) was “negligible effects”. The “inhibitory effect on HBV‐enveloped particle release and viral DNA content in supernatant” value ([2]; HepG2.2.15 cells, particle gel assay with anti‐preS1 antibody and qPCR, n = 3) was “significantly stronger inhibitory effect; also recorded: dose‐dependent manner” and the “inhibition of enveloped‐particle release” value [3] was “dose‐dependent manner”.

“GSWNTFRAQPTI [GBP64, phage-display 12-mer peptide […]]” was tested, and the “N (sites)” value [1, 6] was 2.88±0.501 sites and the “△H” value [1, 6] was 0.486 ± 0.186 kcal/mol.

In the case of “QPTPISPPLRN [pep60, hydrophobic preS1 peptide 91‐[…]‐102]”, the “interaction with GRP78 in words” value ([1]; 25 °C) is reported as “weak interaction” and the “inhibition of GRP78-enhanced enveloped‐particle release and viral DNA content” value ([2]; n = 3) is reported as “minimal effects”.

“MKAHHSQLYPRH [GBP66, phage-display 12-mer peptide […]]” was tested, and the “N (sites)” value [1, 6] was 10.0±2.38 sites and the “△H” value [1, 6] was 1.55 ± 0.647 kcal/mol.

In the case of “WDLAWMFRLPVG [pep415, reference compound]”, the “inhibition of GRP78-enhanced enveloped‐particle release and viral DNA content” value ([2]; n = 3) is reported as “inhibited”.

LTPHKHHKHLHA [GBP65] was tested, and the “N (sites)” value [1, 6] was 10.0±1.05 sites and the “△H” value [1, 6] was 2.58 ± 0.647 kcal/mol.

B1: GST-preS1-p3 (residues 66-119) (domain or fragment)
chain: GFTPPHGGLLGWSPQAQGILTTLPAAPPPASTNRQSGRQPTPISPPLRDSHPQA
modifications: also: GST fusion
With B1 the Kd [4] was 431 nM.

B2: GST-preS1-p2 (residues 25-90) (domain or fragment)
chain: FPDHQLDPAFGANSNNPDWDFNPNKDHWPEANQVGAGAFGPGFTPPHGGLLGWSPQAQGILTTLPA
modifications: also: GST fusion
In the case of B2, the Kd [4] is reported as 1200 nM.

B3: pep56 (19-DPAFGANSL-29) (peptide)
peptide: DPAFGANSL
notes: also called pepp56; source: designed hydrophobic peptide of preS1
With B3 the Kd [5] was 6.59 nM.

B4: pep59 (70-QGIMQTVPAN-80) (peptide)
peptide: QGIMQTVPAN
notes: source: designed hydrophobic peptide of preS1
B4 was tested, and the Kd [5] was 10.6 nM.
